According to the supplement of paper PMC10307832:

How the values were obtained:
Experiment in all cases: relative viability (nuclei count vs DMSO), 5 days (fraction); higher = more cells survive
HCC-15 = tested on: HCC-15
Outline: (§1)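 Lung cancer cell lines in 1536-well plates got either a single drug or a fixed anchor-drug dose together with five library-drug doses (not always all listed) in √10 steps, by pin tool, on the day after seeding. Nuclei were counted after 5 days, and relative viability is the treated-to-vehicle ratio of nuclei counts. Values are medians of duplicate plates.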

SK-MES-1 = tested on: SK-MES-1
Outline: as §1

NCI-H1755 = tested on: NCI-H1755
Outline: as §1

NCI-H2347 = tested on: NCI-H2347
Outline: as §1

NCI-H2009 = tested on: NCI-H2009
Outline: as §1

HARA = tested on: HARA
Outline: as §1

COR-L 105 = tested on: COR-L 105
Outline: as §1

NCI-H2228 = tested on: NCI-H2228
Outline: as §1

COR-L23 = tested on: COR-L23
Outline: as §1

NCI-H1793 = tested on: NCI-H1793
Outline: as §1

NCI-H1355 = tested on: NCI-H1355
Outline: as §1

NCI-H1993 = tested on: NCI-H1993
Outline: as §1

EKVX = tested on: EKVX
Outline: as §1

PC-14 = tested on: PC-14
Outline: as §1

UMC-11 = tested on: UMC-11
Outline: as §1

NCI-H2170 = tested on: NCI-H2170
Outline: as §1

NCI-H1734 = tested on: NCI-H1734
Outline: as §1

NCI-H358 = tested on: NCI-H358
Outline: as §1

HOP-62 = tested on: HOP-62
Outline: as §1

NCI-H1395 = tested on: NCI-H1395
Outline: as §1

NCI-H838 = tested on: NCI-H838
Outline: as §1

NCI-H647 = tested on: NCI-H647
Outline: as §1

O=C(O)c1ccc(-c2c[nH]c3ncc(-c4ccccc4)cc23)cc1C1CCCC1 + CS(=O)(=O)CCNCc1ccc(-c2ccc3ncnc(Nc4ccc(OCc5cccc(F)c5)c(Cl)c4)c3c2)o1 [Lapatinib] (partner 2 µM)
relative viability (HCC-15; first compound 0.04 µM): 0.882
relative viability (HCC-15; first compound 0.1265 µM): 0.987
relative viability (HCC-15; first compound 0.4 µM): 0.838
relative viability (HCC-15; first compound 1.265 µM): 0.551
relative viability (SK-MES-1; first compound 0.04 µM): 0.443
relative viability (SK-MES-1; first compound 0.1265 µM): 0.495
relative viability (SK-MES-1; first compound 0.4 µM): 0.464
relative viability (SK-MES-1; first compound 1.265 µM): 0.412
relative viability (NCI-H1755; first compound 0.04 µM): 1.02
relative viability (NCI-H1755; first compound 0.1265 µM): 1.11
relative viability (NCI-H1755; first compound 0.4 µM): 1.02
relative viability (NCI-H1755; first compound 1.265 µM): 0.967
relative viability (NCI-H2347; first compound 0.04 µM): 0.96
relative viability (NCI-H2347; first compound 0.1265 µM): 0.933
relative viability (NCI-H2347; first compound 0.4 µM): 0.9
relative viability (NCI-H2347; first compound 1.265 µM): 0.881
relative viability (NCI-H2009; first compound 0.04 µM): 1.06
relative viability (NCI-H2009; first compound 0.1265 µM): 0.922
relative viability (NCI-H2009; first compound 0.4 µM): 0.882
relative viability (NCI-H2009; first compound 1.265 µM): 0.848
relative viability (HARA; first compound 0.04 µM): 0.578
relative viability (HARA; first compound 0.1265 µM): 0.925
relative viability (HARA; first compound 0.4 µM): 0.802
relative viability (HARA; first compound 1.265 µM): 0.716
relative viability (COR-L 105; first compound 0.04 µM): 0.363
relative viability (COR-L 105; first compound 0.1265 µM): 0.401
relative viability (COR-L 105; first compound 0.4 µM): 0.347
relative viability (COR-L 105; first compound 1.265 µM): 0.371
relative viability (NCI-H2228; first compound 0.04 µM): 1.17
relative viability (NCI-H2228; first compound 0.1265 µM): 1.41
relative viability (NCI-H2228; first compound 0.4 µM): 1.2
relative viability (NCI-H2228; first compound 1.265 µM): 0.362
relative viability (COR-L23; first compound 0.04 µM): 0.89
relative viability (COR-L23; first compound 0.1265 µM): 1.09
relative viability (COR-L23; first compound 0.4 µM): 1.01
relative viability (COR-L23; first compound 1.265 µM): 0.654
relative viability (NCI-H1793; first compound 0.04 µM): 0.897
relative viability (NCI-H1793; first compound 0.1265 µM): 1.34
relative viability (NCI-H1793; first compound 0.4 µM): 0.969
relative viability (NCI-H1793; first compound 1.265 µM): 0.71
relative viability (NCI-H1355; first compound 0.04 µM): 1.02
relative viability (NCI-H1355; first compound 0.1265 µM): 1.09
relative viability (NCI-H1355; first compound 0.4 µM): 0.963
relative viability (NCI-H1355; first compound 1.265 µM): 0.829
relative viability (NCI-H1993; first compound 0.04 µM): 0.927
relative viability (NCI-H1993; first compound 0.4 µM): 0.789
relative viability (NCI-H1993; first compound 1.265 µM): 0.835
relative viability (EKVX; first compound 0.04 µM): 0.218
relative viability (EKVX; first compound 0.1265 µM): 0.216
relative viability (EKVX; first compound 0.4 µM): 0.212
relative viability (EKVX; first compound 1.265 µM): 0.187
relative viability (PC-14; first compound 0.04 µM): 0.304
relative viability (PC-14; first compound 0.1265 µM): 0.391
relative viability (PC-14; first compound 0.4 µM): 0.339
relative viability (PC-14; first compound 1.265 µM): 0.302
relative viability (UMC-11; first compound 0.04 µM): 0.994
relative viability (UMC-11; first compound 0.1265 µM): 1.09
relative viability (UMC-11; first compound 0.4 µM): 1.06
relative viability (UMC-11; first compound 1.265 µM): 1.01
relative viability (NCI-H2170; first compound 0.04 µM): 0.26
relative viability (NCI-H2170; first compound 0.1265 µM): 0.324
relative viability (NCI-H2170; first compound 0.4 µM): 0.262
relative viability (NCI-H2170; first compound 1.265 µM): 0.28
relative viability (NCI-H1734; first compound 0.04 µM): 1.07
relative viability (NCI-H1734; first compound 0.1265 µM): 1.1
relative viability (NCI-H1734; first compound 0.4 µM): 0.955
relative viability (NCI-H1734; first compound 1.265 µM): 0.984
relative viability (NCI-H358; first compound 0.04 µM): 0.438
relative viability (NCI-H358; first compound 0.1265 µM): 0.447
relative viability (NCI-H358; first compound 0.4 µM): 0.448
relative viability (NCI-H358; first compound 1.265 µM): 0.323
relative viability (HOP-62; first compound 0.04 µM): 1.23
relative viability (HOP-62; first compound 0.1265 µM): 0.993
relative viability (HOP-62; first compound 0.4 µM): 1.1
relative viability (HOP-62; first compound 1.265 µM): 0.897
relative viability (NCI-H1395; first compound 0.04 µM): 1.01
relative viability (NCI-H1395; first compound 0.1265 µM): 1.23
relative viability (NCI-H1395; first compound 0.4 µM): 0.867
relative viability (NCI-H1395; first compound 1.265 µM): 0.851
relative viability (NCI-H838; first compound 0.04 µM): 0.92
relative viability (NCI-H838; first compound 0.1265 µM): 1.4
relative viability (NCI-H838; first compound 0.4 µM): 1.11
relative viability (NCI-H838; first compound 1.265 µM): 0.915
relative viability (NCI-H647; first compound 0.04 µM): 1.05
relative viability (NCI-H647; first compound 0.1265 µM): 1.12
relative viability (NCI-H647; first compound 0.4 µM): 1.13
relative viability (NCI-H647; first compound 1.265 µM): 0.801
